The values that follow are results of earlier work, collected in patent US20100330171A1, “Dietary Supplement for Eye Health” (priority 2008, published 2010).

The subject of one data set is tube formation. Particulars: Matigel-induced tube formation assay.
Another data set deals with VEGFR-2 (Homo sapiens, UniProt P35968). To be noted: serum concentrations 0.01-1 microM.
Data set [1] concerns phosophoinositide-dependent protein kinase, Akt, apoptosis signal-regulating kinase, p38. Particulars: fibroblast growth factor-treated HUVEC.
Data set [2] deals with human umbilical vein endothelial cells (HUVEC).
Another data set addresses MMP-9 (Homo sapiens, UniProt P14780).
For data set [3] the following is noted: compared with ascorbic acid (vitamin C) and tocopherol (vitamin E).
A further data set concerns angiogenesis. To be noted: chick chorioallantoic membrane assay.
The test system of data set [4] is human colon cancer cell line. To be noted: by blocking the induction of VEGF.
In a further data set the test system is bovine endothelial cells. Particulars: in vitro, bovine endothelial cells stimulated by FGF-2.
Another data set concerns the target T1, leukocyte elastase (Homo sapiens, UniProt P08246).
T1 sequence (P08246 30-267): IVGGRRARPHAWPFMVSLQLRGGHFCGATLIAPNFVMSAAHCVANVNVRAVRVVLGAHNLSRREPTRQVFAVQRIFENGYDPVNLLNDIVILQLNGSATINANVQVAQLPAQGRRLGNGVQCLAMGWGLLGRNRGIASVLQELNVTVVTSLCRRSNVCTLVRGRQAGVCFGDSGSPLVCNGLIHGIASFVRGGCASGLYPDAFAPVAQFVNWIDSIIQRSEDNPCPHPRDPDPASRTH

VEGFR-2, sequence (P35968 20-1356, species assumed): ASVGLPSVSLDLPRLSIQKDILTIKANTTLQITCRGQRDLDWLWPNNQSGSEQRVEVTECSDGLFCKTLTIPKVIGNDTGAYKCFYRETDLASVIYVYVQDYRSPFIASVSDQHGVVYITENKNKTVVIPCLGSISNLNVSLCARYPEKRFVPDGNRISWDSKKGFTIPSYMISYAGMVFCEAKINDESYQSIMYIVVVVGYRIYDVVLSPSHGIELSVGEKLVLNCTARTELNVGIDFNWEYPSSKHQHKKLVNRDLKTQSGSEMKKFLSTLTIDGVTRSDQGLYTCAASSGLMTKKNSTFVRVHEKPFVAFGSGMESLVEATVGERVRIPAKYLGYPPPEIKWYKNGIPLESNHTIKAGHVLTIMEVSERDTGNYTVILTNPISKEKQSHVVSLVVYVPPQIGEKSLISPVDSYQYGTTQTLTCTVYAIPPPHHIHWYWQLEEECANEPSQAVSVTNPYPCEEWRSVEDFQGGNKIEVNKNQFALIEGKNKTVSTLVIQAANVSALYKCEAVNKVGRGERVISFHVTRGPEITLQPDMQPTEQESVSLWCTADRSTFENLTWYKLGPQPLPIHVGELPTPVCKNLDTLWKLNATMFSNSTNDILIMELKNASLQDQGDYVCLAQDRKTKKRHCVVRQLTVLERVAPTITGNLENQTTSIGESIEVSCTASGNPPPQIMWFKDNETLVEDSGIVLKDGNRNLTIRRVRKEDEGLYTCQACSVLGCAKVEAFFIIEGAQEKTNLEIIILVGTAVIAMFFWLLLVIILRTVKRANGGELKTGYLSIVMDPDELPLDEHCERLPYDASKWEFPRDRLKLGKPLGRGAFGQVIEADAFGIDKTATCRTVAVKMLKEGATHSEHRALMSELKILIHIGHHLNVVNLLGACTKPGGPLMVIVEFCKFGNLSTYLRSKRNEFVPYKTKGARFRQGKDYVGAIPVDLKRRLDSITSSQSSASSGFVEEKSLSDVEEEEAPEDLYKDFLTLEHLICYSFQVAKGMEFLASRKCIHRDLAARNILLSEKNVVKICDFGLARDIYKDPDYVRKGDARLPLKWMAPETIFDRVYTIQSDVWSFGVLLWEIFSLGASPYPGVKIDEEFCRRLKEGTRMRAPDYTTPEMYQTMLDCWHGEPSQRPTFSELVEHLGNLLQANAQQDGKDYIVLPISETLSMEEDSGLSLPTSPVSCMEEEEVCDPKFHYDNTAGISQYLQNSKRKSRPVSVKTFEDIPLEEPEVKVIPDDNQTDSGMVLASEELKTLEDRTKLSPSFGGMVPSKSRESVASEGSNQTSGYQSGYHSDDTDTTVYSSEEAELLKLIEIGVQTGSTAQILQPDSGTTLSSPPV
MMP-9, sequence (P14780 94-707, species assumed): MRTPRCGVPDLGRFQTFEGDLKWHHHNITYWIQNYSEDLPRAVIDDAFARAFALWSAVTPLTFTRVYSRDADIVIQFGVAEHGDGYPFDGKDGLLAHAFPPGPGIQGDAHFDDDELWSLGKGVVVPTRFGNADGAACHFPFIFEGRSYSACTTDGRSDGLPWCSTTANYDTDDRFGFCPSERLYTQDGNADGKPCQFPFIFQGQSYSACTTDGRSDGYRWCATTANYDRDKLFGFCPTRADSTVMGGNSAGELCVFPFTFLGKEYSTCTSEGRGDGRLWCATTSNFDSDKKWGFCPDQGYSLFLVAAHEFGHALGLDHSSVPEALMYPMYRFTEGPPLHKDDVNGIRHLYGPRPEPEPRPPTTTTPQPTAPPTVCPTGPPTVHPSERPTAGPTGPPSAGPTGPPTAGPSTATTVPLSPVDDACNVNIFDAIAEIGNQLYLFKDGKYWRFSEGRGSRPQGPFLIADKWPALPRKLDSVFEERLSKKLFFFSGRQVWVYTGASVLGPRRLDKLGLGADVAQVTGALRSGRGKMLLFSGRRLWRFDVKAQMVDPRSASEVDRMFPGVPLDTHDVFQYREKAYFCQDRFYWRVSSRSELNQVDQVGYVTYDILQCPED

`O=C(O[C@@H]1Cc2c(O)cc(O)cc2O[C@H]1c1ccc(O)c(O)c1)c1cc(O)c(O)c(O)c1` [CG, catechin-3 gallate]: in the data set on tube formation, the tube formation result is given as “almost completely abolished”. Also, the “inhibition of VEGF-dependent phosphorylation of VEGFR-2” value at VEGFR-2 is reported as “inhibit”.

Take `CC(C)=CCC/C(C)=C/CC/C(C)=C/CC[C@]1(C)CCc2cc(O)c(C)c(C)c2O1` [γ-tocotrienol]: in [1], the “phosphorylation of apoptosis signal-regulating kinase and p38” value is “increasing”; the “phosphorylation of phosophoinositide-dependent protein kinase and Akt” value was “suppressing”. The “suppression of fibroblast growth factor-induced proliferation, migration and tube formation” value in data set [2] is “highest activity”.

Take Epigallocatechin-3-gallate [EGCG]: in the data set with tube formation, the tube formation result is “almost completely abolished”. Further, the “inhibition of MMP-9” value at MMP-9 is “inhibits”. Also, the “quenching reactive oxygen species” value in data set [3] is reported as “more effective”. The “formation of new blood vessels” value in the data set with angiogenesis was “block”. The “gene expression of TNF-alpha and the cytokines IL-1 beta and IL-10 induced by TNF-alpha” value in the data set with TNF-alpha is recorded as “block”. In addition, the microvessel density entry in [4] is listed as “reduces”. For the same compound, the endothelial cell growth result in the data set on bovine endothelial cells is on record as “suppress”. Further, the “inhibition of leukocyte elastase” value at leukocyte elastase is “inhibit”. Moreover, the “inhibition of VEGF-dependent phosphorylation of VEGFR-2” value on VEGFR-2 is reported as “inhibit”.
